Data: patent US20230144023A1, “USE OF BUTYLPHTHALIDE AND DERIVATIVE THEREOF” (CSPC NBP PHARMACEUTICAL CO., LTD, priority 2020, published 2023)
Values joined by “and” are separate entries in the source; they are usually repeats but may differ in a detail not shown here. Equal values may be shown once. Where a name gives a salt, the structure may show the parent alone. Read-outs that look alike come from different tables or passages of the source.

Tests used:
[1] = test system: chemotherapy-induced peripheral neuropathy; settings: cited from earlier work
MM.1S xenograft tumor = test: Influence of NBP on in vivo anti-tumor efficacy of Bortezomib, MM.1S xenograft (Example 8); parameters: species or system Nu/Nu mice; settings: for T/C % / TGI % / RTV / TV: day 14; for T/C % / TGI % / RTV / TV / Tumor weight inhibition rate / Tumor weight: Bor 0.5 mg/kg, Pal 70 mg/kg, NBP 60 mg/kg, alone or combined; for RTV / TV / Tumor weight: mean, n=6; for Tumor weight inhibition rate / Tumor weight: end of experiment; for Tumor weight: in g (unit assumed); for body weights of the mice: mouse, in vivo
Protocol: After in vitro resuscitation and passage of MM.1S cells to a sufficient amount, the cells were counted by a microscope, and diluted with a serum-free medium to adjust the cell count to about 1×10^8 cells/mL. The cell suspension was kept in an ice-water bath. The MM.1S cell suspension was extracted by a sterile syringe and inoculated into the subcutaneous tissue of the forelimb axilla of the Nu/Nu mice. […] Monotherapy group of Palbociclib: intragastric administration at 70 mg/kg, qd (the administration was commenced on day 0); […] The solvent group was given the solvent at the same frequency and with the same administration method as Bortezomib and NBP. The administration period was 16 days, and the administration volume was 10 mL/kg. […] Animals were weighed at set time once per day after the commencement of administration. After animals were grouped, the long diameter and the short diameter of the tumor were measured twice every week. […] V=1⁄2×A×B^2 […] (4) Tumor growth inhibition rate: Note: V: tumor volume; A: tumor length; B: tumor width; RTV: relative tumor volume; TVnd: tumor volume on day n; TV0d: tumor volume on day 0; […]: mean relative tumor volume on day n; TVXn: mean tumor volume of the therapy group on day n; TVX0: mean tumor volume of the therapy group on day 0; TVMn: mean tumor volume of the solvent group on day n; and TVM0: mean tumor volume of the solvent group on day 0 At the end of the experiment, after the animals were euthanized by CO2 asphyxiation, the tumors were excised and weighed.

[2] = test system: chemotherapy-induced peripheral neuropathy; settings: treatment of CIPN; guideline rating; cited from earlier work
[3] = cited from earlier work
[4] = test system: paclitaxel (albumin bound) chemotherapy-induced peripheral neuropathy; test: Paclitaxel (albumin bound) chemotherapy-induced peripheral neuropathy in rats, butylphthalide intragastric administration (Example 2); assay type: in vivo, SD (Sprague Dawley) rats; settings: duloxetine hydrochloride 15 mg/kg qd, compared with the model group
Protocol: The model group was given vegetable oil at the same frequency and with the same administration method as NBP. The normal group was given normal saline at the same frequency and with the same administration method as ab-PTX, and was given vegetable oil at the same frequency and with the same administration method as NBP. […] (2) Thermal pain threshold: measurements were performed on days −1, 7, and 14. Method: IITC Life Science Electronic Von Frey Anesthesio meter was used and the intensity of the light source was adjusted to obtain a baseline of thermal pain threshold of about 3-6 s. […] The rats were placed in a plastic compartment on a glass plate, to make the planta centers of the rats be exposed to the light source. […] (3) Mechanical stimulus pain threshold: measurements were performed on days 0, 6, and 13. Method: the rats were placed in a plastic compartment on a wire mesh, left to stand still for 15 min, stimulated using a stimulation probe with a diameter of 0.4 mm of the IITC Life Science Electronic Von Frey Anesthesio meter at the planta centers of the rats by gradually increasing the force until reflexive withdrawal of the rats.

[5] = PK of Bortezomib and butylphthalide in plasma of MM.1S tumor-bearing mice (Example 8); assay type: in vivo, Nu/Nu mice
Protocol: Monotherapy group of Bortezomib: administered by intraperitoneal injection at 0.5 mg/kg, biw (on days 0, 3, 7, 10, and 15);
Monotherapy group of NBP: administered by transoral gavage at 60 mg/kg, bid (the administration was commenced on day 0), and the second dose of NBP was administered with an interval from the first dose of ≥4 h;
Monotherapy group of Palbociclib: intragastric administration at 70 mg/kg, qd (the administration was commenced on day 0);
Combined therapy group of NBP/Bortezomib: the administration frequency and dose were the same as the frequency and dose of the monotherapy group of NBP and the monotherapy group of Bortezomib, respectively.
Combined therapy group of Bortezomib/Palbociclib: the administration frequency and dose were the same as the frequency and dose of the monotherapy group of Bortezomib and the monotherapy group of Palbociclib, respectively.
Combined therapy group of NBP/Bortezomib/Palbociclib: the administration frequency and dose were the same as the frequency and dose of the monotherapy group of NBP, the monotherapy group of Bortezomib, and the monotherapy group of Palbociclib, respectively.
Before administration of the last dose of Bortezomib (0 h), and 5 min, 15 min, 30 min, 1 h, 2 h, 4 h, 8 h, 24 h after the administration, blood was sampled (as detailed in Table 8) (except that blood was sampled from the mice in the solvent group only at 0 h), anticoagulated with heparin, and centrifuged to separate plasma, which was stored at −80° C. for later use. Bortezomib and butyphthalide in the plasma were determined by protein precipitation-LC/MS/MS.

[6] = test system: MM.1S, Jeko-1, HT29, A549, DU145; test: In vitro proliferation of 5 cell strains, summary statements (Example 7); assay type: cell-based, Human; settings: Homo sapiens; range over MM.1S, Jeko-1, HT29, A549, DU145; combined therapy with 30 μM NBP
Protocol: Different drug concentration gradients were set for each group.
Monotherapy group of NBP: NBP was 2× serially diluted from an initial concentration of 480 μM to 8 concentrations: 480, 240, 120, 60, 30, 15, 7.5, and 3.75 μM, respectively.
The action time of the drug was 72 h.
3 replicate wells were set for each concentration of each drug, and blank wells (only culture medium was present, and no tumor cells were inoculated) and normal wells (a culture medium inoculated with tumor cells, drug concentration was 0) were set.

[7] = prevention of CIPN, guideline rating
[8] = prevention of CIPN, patients receiving oxaliplatin treatment
[9] = prevention of CIPN, patients receiving cisplatin/oxaliplatin-based chemotherapy
[10] = prevention of CIPN, patients receiving paclitaxel/carboplatin chemotherapy
[11] = Bor 0.5 mg/kg i.p., Pal 70 mg/kg, NBP 60 mg/kg, mean ± SD, n=6

N[C@@H](CCC(=O)O)C(=O)O [Glutamate]
Efficacy [1, 7]: Low
Safety [1, 7]: Low

CN(C)CCC=C1c2ccccc2CCc2ccccc21 [Amitriptyline]
Efficacy [1, 7]: No evidence
Safety [1, 7]: Moderate

Vitamin E
Efficacy [1, 7]: Low
Safety [1, 7]: Low

Omega-3-fatty acid
Efficacy [1, 8]: Low
Safety [1, 8]: Low

COc1ccc(C(CN(C)C)C2(O)CCCCC2)cc1 (centres unmarked) [Venlafaxine]
Efficacy [1, 7]: Low
Safety [1, 7]: Low

CC(=O)c1c(C)c2cnc(Nc3ccc(N4CCNCC4)cn3)nc2n(C2CCCC2)c1=O [Palbociclib]
T/C % (MM.1S xenograft tumor): 44.4%
TGI % (MM.1S xenograft tumor): 56.3%
RTV (MM.1S xenograft tumor): 4.3
TV (MM.1S xenograft tumor): 605.4 mm^3
Tumor weight inhibition rate (MM.1S xenograft tumor): 66.6%
Tumor weight (MM.1S xenograft tumor): 0.550
body weights of the mice (MM.1S xenograft tumor): no significant difference

Nc1nnc(-c2cccc(Cl)c2Cl)c(N)n1 [Lamotrigine]
Efficacy [2]: No evidence
Safety [2]: Low

Amitriptyline/nortriptyline
Efficacy [2]: Low

CCN(CC)C(=S)S [Diethyldithio-carbamate]
Safety [1, 7]: High

CC[C@]1(O)C[C@H]2CN(CCc3c([nH]c4ccccc34)[C@@](C(=O)OC)(c3cc4c(cc3OC)N(C=O)[C@H]3[C@@](O)(C(=O)OC)[C@H](OC(C)=O)[C@]5(CC)C=CCN6CC[C@]43[C@@H]65)C2)C1 [vincristine]
patients experiencing coasting ([3]; when the chemotherapy is stopped): 30%

COCCOC(=O)C1=C(C)NC(C)=C(C(=O)OC(C)C)C1c1cccc([N+](=O)[O-])c1 (centres unmarked) [Nimodipine]
Safety [1, 7]: Moderate

N[C@@H](CCC(=O)N[C@@H](CS)C(=O)NCC(=O)O)C(=O)O [Glutathione]
Efficacy [1, 9]: Low
Safety [1, 9]: Low
Efficacy [1, 10]: Low
Safety [1, 10]: Low

NC(=O)N1c2ccccc2C=Cc2ccccc21 [Carbamazepine]
Efficacy [1, 7]: Low
Safety [1, 7]: Low

CNCC[C@H](Oc1cccc2ccccc12)c1cccs1 [duloxetine hydrochloride, Duloxetine hydrochloride]
body weights of the rats ([4]; NBP 3, 10 and 30 mg/kg bid, intragastric, throughout administration): significantly increase
mechanical pain threshold ([4]; day 13, NBP 10 and 30 mg/kg bid, P<0.05): significantly decreased
thermal pain threshold ([4]; day 14, NBP 3, 10 and 30 mg/kg bid, P<0.05): significantly decreased

CC(=O)O[C@H](CC(=O)[O-])C[N+](C)(C)C [Acetyl L-carnitine]
Efficacy [1, 7]: Low
Safety [1, 7]: Low
Efficacy [2]: Low
Safety [2]: Moderate

rhuLIF: intervention for prevention of CIPN listed in the ASCO guideline table
Safety [1]: Low
Efficacy [1, 7]: No evidence

CC(=O)N[C@@H](CS)C(=O)O [Acetylcysteine]
Efficacy [1, 7]: Low
Safety [1, 7]: Low

NCCCNCCSP(=O)(O)O [Amifostine]
Efficacy [1, 7]: Low
Safety [1, 7]: Moderate

CC(C)C[C@H](NC(=O)[C@H](Cc1ccccc1)NC(=O)c1cnccn1)B(O)O [Bortezomib]
IC50 (A549): 11.8 nM and 13.3 nM and 10.6 nM and 11.9 nM
IC50 (HT29): 4.43 nM and 4.97 nM and 5.65 nM and 5.02 nM
IC50 (MM.1S): 2.55 nM and 2.94 nM and 2.99 nM and 2.83 nM
CI of Bortezomib [5, 11]: 1.81 ± 0.56 L/h/kg
Vd of Bortezomib [5, 11]: 14.2 ± 3.2 L/kg
influence of Bortezomib on the pharmacokinetic behavior of NBP in mice ([5]; Bortezomib 0.5 mg/kg): substantially did not affect
AUC(0-t) ([5]; Nu/Nu, mouse, plasma, ip, Bor 0.5 mg/kg i.p., Pal 70 mg/kg, NBP 60 mg/kg, mean ± SD, n=6, read-out: AUC0-t of Bortezomib in plasma): 290 ± 104 ng·h/mL
MRT last ([5]; Nu/Nu, mouse, plasma, ip, Bor 0.5 mg/kg i.p., Pal 70 mg/kg, NBP 60 mg/kg, mean ± SD, n=6, read-out: MRT0-t of Bortezomib): 5.9 ± 0.8 h
half-life ([5]; Nu/Nu, mouse, plasma, ip, Bor 0.5 mg/kg i.p., Pal 70 mg/kg, NBP 60 mg/kg, mean ± SD, n=6, read-out: t1/2 of Bortezomib in plasma (converted)): 2.36 ± 0.0483 days
Cmax ([5]; Nu/Nu, mouse, plasma, ip, after last Bortezomib dose, Bor 0.5 mg/kg i.p., Pal 70 mg/kg, NBP 60 mg/kg, mean ± SD, n=6, read-out: Cmax of Bortezomib in plasma): 113 ± 8 ng/mL
IC50 (DU145): 12.8 nM and 11.9 nM and 17.1 nM and 13.9 nM
T/C % (MM.1S xenograft tumor): 98.0%
TGI % (MM.1S xenograft tumor): 8.7%
RTV (MM.1S xenograft tumor): 9.6
TV (MM.1S xenograft tumor): 1124.8 mm^3
Tumor weight inhibition rate (MM.1S xenograft tumor): 22.2%
Tumor weight (MM.1S xenograft tumor): 1.282
body weights of the mice (MM.1S xenograft tumor): no significant difference
patients still having clinically significant neuropathy ([3]; 2-3 months after treatment): 60-85%
additional patients with moderate to severe neurotoxicity ([3]; human, in vivo): ~30%
patients with severe painful sensory neuropathy ([3]; human, in vivo): 50%
IC50 (Jeko-1): 4.83 nM and 3.51 nM and 4.47 nM and 4.27 nM
IC50 [6]: 1 to 20 nM

CNCC[C@H](Oc1cccc2ccccc12)c1cccs1 [Duloxetine]
Efficacy [2]: Moderate
Safety [2]: Low

NCC1(CC(=O)O)CCCCC1 [Gabapentin]
Efficacy [2]: Low
Safety [2]: Low

CC1=C(/C=C/C(C)=C/C=C/C(C)=C/C(=O)O)C(C)(C)CCC1 [All-trans retinoic acid]
Efficacy [1, 7]: Low
Safety [1, 7]: Moderate
